Assay results: US10550105B2 (Ribon Therapeutics Inc., priority 2018, dated 2020)
pIC50: −log10 of the molar value.

The molecules below were run against PARP7 (Homo sapiens (Human), UniProt Q7Z3E1) (assay: Enzymatic assay for inhibition of PARP7: TR-FRET displacement of biotinylated Probe A from the TIPARP active site). Settings: Table A-1.
Type: binding
In short: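 Titrated compounds compete with the biotinylated probe; after an additional 30 min incubation at 25° C, time-delayed fluorescence (90 μs) is measured. Inhibition curves use a Hill coefficient that normally floats but may be held at 1.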

PARP7, sequence (Q7Z3E1 whole entry): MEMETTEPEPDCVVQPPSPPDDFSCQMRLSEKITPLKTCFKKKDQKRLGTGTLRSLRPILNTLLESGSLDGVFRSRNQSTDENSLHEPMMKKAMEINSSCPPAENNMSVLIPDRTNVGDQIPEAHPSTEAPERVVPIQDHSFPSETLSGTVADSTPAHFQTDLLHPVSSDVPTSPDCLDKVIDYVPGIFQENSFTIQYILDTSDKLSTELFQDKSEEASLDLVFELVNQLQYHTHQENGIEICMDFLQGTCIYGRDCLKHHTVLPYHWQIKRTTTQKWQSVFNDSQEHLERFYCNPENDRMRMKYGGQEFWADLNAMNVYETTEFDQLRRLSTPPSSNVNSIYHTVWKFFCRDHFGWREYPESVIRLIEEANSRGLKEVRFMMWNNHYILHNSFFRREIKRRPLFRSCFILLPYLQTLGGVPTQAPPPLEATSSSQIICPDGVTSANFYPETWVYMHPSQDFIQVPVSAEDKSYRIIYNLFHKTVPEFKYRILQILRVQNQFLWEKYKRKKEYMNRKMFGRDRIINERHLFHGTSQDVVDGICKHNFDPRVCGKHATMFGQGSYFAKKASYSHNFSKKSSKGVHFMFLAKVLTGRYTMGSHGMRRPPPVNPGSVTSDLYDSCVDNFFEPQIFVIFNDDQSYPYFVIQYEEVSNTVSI

pIC50	SMILES
> 7.00	COCC1C[C@@H](COCCC(=O)N2CCN(c3ccc(C#N)cn3)CC2)N(c2cn[nH]c(=O)c2C(F)(F)F)C1 (stereo partly drawn) [Example 139, 6-[4-(3-[[(2S)-4-(methoxymethyl)-1-[6-oxo-5-(trifluoromethyl)-1,6-dihydropyridazin-4-yl]pyrrolidin-2-yl]methoxy]propanoyl)piperazin-1-yl]pyridine-3-carbonitrile]
> 7.00	O=C(C[C@H]1CC[C@@H](CNc2cn[nH]c(=O)c2C(F)(F)F)O1)N1CCN(c2ccc(C(F)(F)F)cn2)CC1 (single isomer, unassigned) [Example 546 Isomer C]
≤ 6.00	O=C(C[C@@H]1CC[C@H](COc2cn[nH]c(=O)c2Cl)O1)N1CCN(c2ncc(Cl)cn2)CC1 (single isomer, unassigned) [Example 566 Isomer D]
> 7.00	O=C(CCOC[C@@H]1CCCN1c1cn[nH]c(=O)c1C(F)(F)F)N1CCN(c2ccccn2)CC1 [Example 454, (S)-5-(2-((3-Oxo-3-(4-(pyridin-2-yl)piperazin-1-yl)propoxy)methyl)pyrrolidin-1-yl)-4-(trifluoromethyl)pyridazin-3(2H)-one]
> 7.00	N#Cc1ccc(N2CCN(C(=O)c3cccc(OC[C@@H]4CCCN4c4cn[nH]c(=O)c4C(F)(F)F)c3)CC2)nc1 [Example 32, 6-[4-[(3-[[(2S)-1-[6-Oxo-5-(trifluoromethyl)-1,6-dihydropyridazin-4-yl]pyrrolidin-2-yl]methoxy]phenyl)carbonyl]piperazin-1-yl]pyridine-3-carbonitrile]
6.00 to 7.00	O=C(COC[C@@H]1CCCN1c1cn[nH]c(=O)c1C(F)(F)F)NC1CCC(Nc2ccccn2)CC1 (single isomer, unassigned; isomer b) [Example 80 Isomer B]
> 7.00	N#Cc1c(OCCOCCC(=O)N2CCN(c3ncc(C(F)(F)F)cn3)CC2)cn[nH]c1=O [Example 553, 3-Oxo-5-[2-(3-oxo-3-[4-[5-(trifluoromethyl)pyrimidin-2-yl]piperazin-1-yl]propoxy)ethoxy]-2,3-dihydropyridazine-4-carbonitrile]
> 7.00	N#Cc1ccc(N2CCN(C(=O)CCOC[C@@H]3c4ncccc4CN3c3cn[nH]c(=O)c3C(F)(F)F)CC2)nc1 [Example 137A, 6-[4-(3-[[(7S)-6-[6-oxo-5-(trifluoromethyl)-1,6-dihydropyridazin-4-yl]-5H,6H,7H-pyrrolo[3,4-b]pyridin-7-yl]methoxy]propanoyl)piperazin-1-yl]pyridine-3-carbonitrile]
> 7.00	CN(CC1CCCO1)c1cccc2c1CN(c1cn[nH]c(=O)c1C(F)(F)F)C2 (stereo not shown) [Example 270, 5-(4-(Methyl((tetrahydrofuran-2-yl)methyl)amino)isoindolin-2-yl)-4-(trifluoromethyl)pyridazin-3(2H)-one]
> 7.00	COC[C@@H](COCCC(=O)N1CCN(c2ncc(Cl)cn2)CC1)Nc1cn[nH]c(=O)c1C(F)(F)F [Example 558, 5-[[(2S)-1-[3-[4-(5-Chloropyrimidin-2-yl)piperazin-1-yl]-3-oxopropoxy]-3-methoxypropan-2-yl]amino]-4-(trifluoromethyl)-2,3-dihydropyridazin-3-one]
≤ 6.00	COCC1c2ccccc2CN1c1cn[nH]c(=O)c1C(F)(F)F (stereo not shown) [Example 239, 5-(1-(Methoxymethyl)isoindolin-2-yl)-4-(trifluoromethyl)pyridazin-3(2H)-one]
> 7.00	C[C@H](COC[C@@H]1CCCN1c1cn[nH]c(=O)c1C(F)(F)F)C(=O)N1CCN(c2ccc(C#N)cn2)CC1 (single isomer, unassigned) [Example 94 Isomer A]
> 7.00	COC[C@@H](COCCC(=O)N1CCN(c2ncc(C)cn2)CC1)Nc1cn[nH]c(=O)c1C(F)(F)F [Example 690, (S)-5-((1-Methoxy-3-(3-(4-(5-methylpyrimidin-2-yl)piperazin-1-yl)-3-oxopropoxy)propan-2-yl)amino)-4-(trifluoromethyl)pyridazin-3(2H)-one]
≤ 6.00	N#Cc1ccc(N2CCN(CCC(=O)NC[C@@H]3CCCN3c3cn[nH]c(=O)c3C(F)(F)F)CC2)nc1 [Example 134, (S)-3-(4-(5-cyanopyridin-2-yl)piperazin-1-yl)-N-((1-(6-oxo-5-(trifluoromethyl)-1,6-dihydropyridazin-4-yl)pyrrolidin-2-yl)methyl)propanamide]
≤ 6.00	N#Cc1ccc(N2CCN(C(=O)C[C@@H]3CC[C@@H]([C@H]4c5ccccc5CN4c4cn[nH]c(=O)c4C(F)(F)F)O3)CC2)nc1 (single isomer, unassigned) [Example 612 Isomer D]
≤ 6.00	COCC1c2ccccc2CN1c1cn[nH]c(=O)c1Cl (stereo not shown) [Example 207, 4-Chloro-5-(1-(methoxymethyl)isoindolin-2-yl)pyridazin-3(2H)-one]

pIC50	SMILES
> 7.00	N#Cc1ccc(NC2CCN(C(=O)CCOC[C@@H]3CCCN3c3cn[nH]c(=O)c3C(F)(F)F)CC2)nc1 [Example 116, 6-[[1-(3-[[(2S)-1-[6-oxo-5-(trifluoromethyl)-1,6-dihydropyridazin-4-yl]pyrrolidin-2-yl]methoxy]propanoyl)piperidin-4-yl]amino]pyridine-3-carbonitrile]
≤ 6.00	COC[C@H](CO[C@H](C)CC(=O)N1CCN(c2ccc(C#N)cn2)CC1)Oc1cn[nH]c(=O)c1C(F)(F)F (single isomer, unassigned) [Example 571 Isomer C]
> 7.00	C[C@@H](COCCC(=O)N1CCC(Oc2ncc(C(F)(F)F)s2)C1)Nc1cn[nH]c(=O)c1C(F)(F)F (stereo partly drawn) [Example 720, 5-(((2S)-1-(3-Oxo-3-(3-((5-(trifluoromethyl)thiazol-2-yl)oxy)pyrrolidin-1-yl)propoxy)propan-2-yl)amino)-4-(trifluoromethyl)pyridazin-3(2H)-one]
> 7.00	COC[C@H](COCCC(=O)N1CCN(c2ncc(Cl)cn2)CC1)Nc1cn[nH]c(=O)c1C(F)(F)F [Example 557, 5-[[(2R)-1-[3-[4-(5-Chloropyrimidin-2-yl)piperazin-1-yl]-3-oxopropoxy]-3-methoxypropan-2-yl]amino]-4-(trifluoromethyl)-2,3-dihydropyridazin-3-one]
> 7.00	N#Cc1c(OCCOCCC(=O)N2CCN(c3ncc(Cl)cn3)CC2)cn[nH]c1=O [Example 552, 5-(2-[3-[4-(5-Chloropyrimidin-2-yl)piperazin-1-yl]-3-oxopropoxy]ethoxy)-3-oxo-2,3-dihydropyridazine-4-carbonitrile]
> 7.00	C[C@@H](COc1cn[nH]c(=O)c1C(F)(F)F)OCCC(=O)N1CCN(c2ncc(Cl)cn2)CC1 (single isomer, unassigned) [Example 543 Isomer B]
> 7.00	C[C@@H](COCCC(=O)N1CCN(c2ccccn2)CC1)Nc1cn[nH]c(=O)c1C(F)(F)F [Example 675, (S)-5-((1-(3-Oxo-3-(4-(pyridin-2-yl)piperazin-1-yl)propoxy)propan-2-yl)amino)-4-(trifluoromethyl)pyridazin-3(2H)-one]
6.00 to 7.00	CC1(C)CC(Nc2cccc3c2CN(c2cn[nH]c(=O)c2C(F)(F)F)C3)CC(C)(C)N1 [Example 300, 5-(4-((2,2,6,6-Tetramethylpiperidin-4-yl)amino)isoindolin-2-yl)-4-(trifluoromethyl)pyridazin-3(2H)-one]
> 7.00	O=C(C[C@@H]1CC[C@@H](CNc2cn[nH]c(=O)c2C(F)(F)F)O1)N1CCN(c2ncc(C(F)(F)F)cn2)CC1 (single isomer, unassigned) [Example 568 Isomer A]
6.00 to 7.00	N#Cc1cnc(N2CCN(C(=O)c3cccc(OC[C@H]4c5ccccc5CN4c4cn[nH]c(=O)c4C(F)(F)F)c3)CC2)cn1 [Example 369, (R)-5-(4-(3-((2-(6-Oxo-5-(trifluoromethyl)-1,6-dihydropyridazin-4-yl)isoindohn-1-yl)methoxy)benzoyl)piperazin-1-yl)pyrazine-2-carbonitrile]
6.00 to 7.00	O=c1[nH]ncc(N2Cc3cccc(F)c3C2)c1Cl [Example 60, 4-Chloro-5-(4-fluoro-2,3-dihydro-1H-isoindol-2-yl)-2,3-dihydropyridazin-3-one]
> 7.00	N#Cc1ccc(N2CCN(C(=O)C[C@H](N)COC[C@@H]3CCCN3c3cn[nH]c(=O)c3C(F)(F)F)CC2)nc1 [Example 145B, 6-[4-[(3S)-3-amino-4-[[(2S)-1-[6-oxo-5-(trifluoromethyl)-1,6-dihydropyridazin-4-yl]pyrrolidin-2-yl]methoxy]butanoyl]piperazin-1-yl]pyridine-3-carbonitrile; formic acid]
> 7.00	C[C@@H](COCCC(=O)N1CCC(Nc2ncc(C#N)s2)C1)Nc1cn[nH]c(=O)c1C(F)(F)F (stereo partly drawn) [Example 717, 2-((1-(3-((S)-2-((6-Oxo-5-(trifluoromethyl)-1,6-dihydropyridazin-4-yl)amino)propoxy)propanoyl)pyrrolidin-3-yl)amino)thiazole-5-carbonitrile]
> 7.00	N#Cc1ccc(NC2CN(C(=O)CCOC[C@@H]3CCCN3c3cn[nH]c(=O)c3C(F)(F)F)C2)nc1 [Example 107, 6-[[1-(3-[[(2S)-1-[6-oxo-5-(trifluoromethyl)-1,6-dihydropyridazin-4-yl]pyrrolidin-2-yl]methoxy]propanoyl)azetidin-3-yl]amino]pyridine-3-carbonitrile]
6.00 to 7.00	O=c1[nH]ncc(N2Cc3ccccc3C2)c1Cl [Example 151, 4-Chloro-5-(isoindolin-2-yl)pyridazin-3(2H)-one]
≤ 6.00	CN(C[C@@H]1CCCN1c1cn[nH]c(=O)c1C(F)(F)F)C(=O)CCN1CCN(c2ccc(C#N)cn2)CC1 [Example 138, 3-[4-(5-cyanopyridin-2-yl)piperazin-1-yl]-N-methyl-N-[[(2S)-1-[6-oxo-5-(trifluoromethyl)-1,6-dihydropyridazin-4-yl]pyrrolidin-2-yl]methyl]propanamide]

SMILES	pIC50
N#Cc1ccc(N2CCN(C(=O)C/C=C\OC[C@H]3c4ccccc4CN3c3cn[nH]c(=O)c3C(F)(F)F)CC2)nc1 (single isomer, unassigned; isomer b) [Example 79 Isomer B]	> 7.00
C[C@@H](COC[C@@H]1CCCN1c1cn[nH]c(=O)c1C(F)(F)F)CC(=O)N1CCN(c2ccc(C#N)cn2)CC1 [Example 128A]	> 7.00
